Test results: patent US9615577B2, “Herbicidally active cyclic dione compounds, or derivatives therefor, substituted by a phenyl which has an alkynyl-containing substituent” (Syngenta Limited, priority 2012, dated 2017)

Assays:
Assay in all cases: Biological Example 3 glasshouse assay for herbicidal activity, using various adjuvant systems, post-emergence
Type in all cases: in vivo
Eleusine indica (ELEIN) = conditions: 8 g/ha, 14 DAA, adjuvant system per compound
Method: (§1) Post-emergence foliar spray application, 200 L/ha, usually one or two replicates for the weeds (depending on application rate), and two replicates for soybean.
(§2) Standard warm conditions (tropical), in glasshouse. Specifically, the glasshouse bay conditions are 24° C./18° C. day/night; 16/8 hours light/dark; 65% humidity.
(§3) The herbicidal application takes place at the following growth stages for plants which include inter alia one or more of the following plants (usually the herbicidal application takes place on at least the following six plants: DIGSA, ELEIN, SETFA, GLXMA Nikko, and GLXMA TMG133, and either BRADC or BRAPP):
Eleusine indica (ELEIN)—growth stage 12 or 13
(§4) Each test Compound is applied with one of the following adjuvant systems (all percentages are final concentrations in the aqueous spray mixture):
(§5) Adjuvant system 1: 0.5% v/v Adigor™ *, 1.0% v/v AMS (ammonium sulphate) and 12.5% v/v IPA (isopropyl alcohol).
(§6) Adjuvant system 2: 0.5% v/v Adigor™ * and 12.5% v/v IPA (isopropyl alcohol).
(§7) Adjuvant system 3: 0.5% v/v Hexamoll™ DINCH **, 1.0% v/v AMS (ammonium sulphate) and 12.5% v/v IPA (isopropyl alcohol).
(§8) Seeds of the weed plants, typically including inter alia [either Brachiaria decumbens (BRADC) or Brachiaria platyphylla (BRAPP)], Digitaria sanguinalis (DIGSA), Eleusine indica (ELEIN), Setaria faberi (SETFA) are sown in seed trays (troughs) containing clay loam soil (pH 7.0, 2.2% organic matter, “Trough Mix A”); and soybean seed is sown in pots containing the same soil with 3 soybean seedlings per pot. The plants are sprayed with the test herbicide when they reach the growth stages mentioned above.
(§9) The test herbicidal solutions are prepared by mixing the appropriate aliquots of the test substance(s) and the adjuvant system indicated above *** in deionised water to give the desired treatment concentration. […]
(§10) A visual assessment of the % herbicidal damage is made 7 and 14 Days After herbicide Application (DAA) (or, in a minority of cases, 7 and 15 DAA), and the results are recorded as % visual herbicidal damage where 0%=no damage to plants and 100%=plant totally killed. […]

[1] = system: Digitaria sanguinalis (DIGSA); conditions: 8 g/ha, 14 DAA, 0.5% v/v Adigor + 1.0% v/v AMS + 12.5% v/v IPA
Method: as §1, §2, §3
Digitaria sanguinalis (DIGSA)—growth stage 12 or 13
as §4, §5, §6, §7
Seeds of the weed plants, typically including inter alia [either Brachiaria decumbens (BRADC) or Brachiaria platyphylla (BRAPP)], Digitaria sanguinalis (DIGSA), Eleusine indica (ELEIN), Setaria faberi (SETFA) are sown in seed trays (troughs) containing clay loam soil (pH 7.0, 2.2% organic matter, “Trough Mix A”); and soybean seed is sown in pots containing the same soil with 3 soybean seedlings per pot. The plants are sprayed with the test herbicide when they reach the growth stages mentioned above. […]
as §10

Setaria faberi (SETFA) = conditions: 8 g/ha, 14 DAA, 0.5% v/v Adigor + 1.0% v/v AMS + 12.5% v/v IPA
Method: as §1, §2, §3
Setaria faberi (SETFA)—growth stage 12 or 13
as §4, §5, §6, §7, §8, §9, §10

[2] = system: Glycine max (GLXMA, soybean) cultivar “Nikko”; conditions: 120 g/ha, 14 or 15 DAA, adjuvant system per compound
Method: as §1, §2, §3
Glycine max (GLXMA, soybean) cultivar “Nikko”—growth stage: 1st trifoliate
as §4, §5
Adjuvant system 2: 0.5% v/v Adigor™ * and 12.5% v/v IPA (isopropyl alcohol). […]
as §10

[3] = system: Glycine max (GLXMA, soybean) cultivar “TMG133”; conditions: 120 g/ha, 14 or 15 DAA, adjuvant system per compound
Method: as §1, §2, §3
Glycine max (GLXMA, soybean) cultivar “TMG133”—which is Roundup Ready™glyphosate-tolerant soybean cultivar TMG133 (typically available from Monsanto in Brazil)—growth stage: 1st trifoliate.
Each test Compound is applied with one of the following adjuvant systems (all percentages are final concentrations in the aqueous spray mixture): […]
as §10
Glycine max (GLXMA, soybean) cultivar “TMG133” is Roundup Ready™ glyphosate-tolerant soybean cultivar TMG133, and is typically available from Monsanto in Brazil.

| SMILES | percentage control of Eleusine indica (ELEIN) (Eleusine indica (ELEIN)) | percentage control of Digitaria sanguinalis (DIGSA) [1] | percentage control of Setaria faberi (SETFA) (Setaria faberi (SETFA)) | percentage phytotoxicities on Glycine max (GLXMA, soybean) cultivar “Nikko” [2] | percentage phytotoxicities on Glycine max (GLXMA, soybean) cultivar “TMG133” [3] |
| --- | --- | --- | --- | --- | --- |
| CC#Cc1cc(C)c(C2C(=O)C3CCC(C3)C2=O)c(C)c1 (centres unmarked) [Compound A-5] | 45% | – | – | – | – |
| CC#Cc1cc(Cl)c(C2C(=O)CC3(CCOCC3)CC2=O)c(OC)c1 [Compound A-20, 9-(2-Chloro-6-methoxy-4-prop-1-ynyl-phenyl)-3-oxa-spiro[5.5]undecane-8,10-dione] | 95% | 100% | 98% | 85% | 85% |
| CC#Cc1cc(C)c(C2C(=O)CC(CCSC)CC2=O)c(C)c1 (centres unmarked) [Compound A-21, 2-(2,6-Dimethyl-4-prop-1-ynyl-phenyl)-5-(2-methylsulfanyl-ethyl)cyclohexane-1,3-dione] | – | – | – | 85% | 85% |
